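Step 1: Grow cells in 96-well plates. Step 2: Expose to compound for 48 hours at 5 concentrations. Step 3: Interpolate endpoints linearly; if unreached, use highest concentration. GI50 = concentration required for 50% inhibition of growth. TGI: total growth inhibition.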 Bounds are passed on as bounds.

The record followed here is PubChem BioAssay (NCI).

Among the test systems are A498 renal; CAKI-1 renal; CCRF-CEM leukemia; HL-60(TB) leukemia; MCF7 breast; NCI-H226 lung; NCI/ADR-RES ovarian; OVCAR-5 ovarian; SF-539 CNS; SW-620 colon.
Holding throughout (test): growth of human tumour cells (NCI), 48 h

As to `N#CCCN(CCC#N)c1ccc(/C=C2\SC(=S)NC2=O)cc1`, the TGI with A498 renal was above 100 µM; in the assay on CAKI-1 renal, 59.7 µM; in the assay on CCRF-CEM leukemia, above 100 µM; in the assay on HL-60(TB) leukemia, above 100 µM; with MCF7 breast, above 100 µM; with NCI-H226 lung, above 100 µM. In addition, the TGI in the assay on NCI/ADR-RES ovarian, with OVCAR-5 ovarian, with SF-539 CNS and with SW-620 colon was above 100 µM throughout.
Regarding `O=C(N/N=C\c1cccs1)c1ccncc1`, the TGI with A498 renal, in the assay on CAKI-1 renal, in the assay with CCRF-CEM leukemia, in the assay with HL-60(TB) leukemia, in the assay with MCF7 breast and with NCI-H226 lung was above 100 µM each time. Also, the TGI with NCI/ADR-RES ovarian, in the assay with OVCAR-5 ovarian, in the assay on SF-539 CNS and in the assay on SW-620 colon was above 100 µM each time.
In the case of `O=C1C(C(c2ccc([N+](=O)[O-])cc2)N2CCOCC2)=C(O)C(c2ccccc2)N1c1ccccc1` (configuration not stated), the TGI in the assay on A498 renal, with CAKI-1 renal, in the assay with CCRF-CEM leukemia, with HL-60(TB) leukemia, in the assay on MCF7 breast and in the assay with NCI-H226 lung was above 10 µM in each case. Further, the TGI in the assay on NCI/ADR-RES ovarian, in the assay on OVCAR-5 ovarian, with SF-539 CNS and in the assay on SW-620 colon was above 10 µM each time.
Take `COc1ccc(OC)c(NC2=NCCO2)c1`: the TGI in the assay with A498 renal was above 100 µM; in the assay on CAKI-1 renal, 28.8 µM; in the assay on CCRF-CEM leukemia, above 100 µM; in the assay with HL-60(TB) leukemia it was above 100 µM; with MCF7 breast, above 100 µM; in the assay on NCI-H226 lung, above 100 µM. The TGI in the assay on NCI/ADR-RES ovarian was above 100 µM; in the assay on OVCAR-5 ovarian, above 100 µM; in the assay with SF-539 CNS it was above 100 µM; in the assay with SW-620 colon it was 28.2 µM.
As for `O=C(NNS(=O)(=O)c1ccc(Br)cc1)c1ccc(Cl)cc1NC(=O)C12CC3CC(CC(C3)C1)C2`, the TGI in the assay on A498 renal is 29 µM; in the assay on CAKI-1 renal, 56.6 µM; with CCRF-CEM leukemia it was 76.5 µM; in the assay on HL-60(TB) leukemia it was 67.9 µM; in the assay on MCF7 breast, 34.1 µM; in the assay with NCI-H226 lung it was 35.6 µM. For the same compound, the TGI in the assay with NCI/ADR-RES ovarian is 32.5 µM; with OVCAR-5 ovarian it was 34.3 µM; in the assay with SF-539 CNS, 32.3 µM; in the assay on SW-620 colon, 41.4 µM.
Turning to `COc1cc(NS(C)(=O)=O)ccc1NCc1cnc2ccc3[nH]cccc3c12`, the TGI with A498 renal was 59.2 µM; in the assay on CAKI-1 renal it was above 72.7 µM; with CCRF-CEM leukemia, 59.5 µM; in the assay on HL-60(TB) leukemia, 18.3 µM; in the assay on MCF7 breast, 59 µM; in the assay on NCI-H226 lung, 35.6 µM. The TGI in the assay with NCI/ADR-RES ovarian is 62.1 µM; with OVCAR-5 ovarian it was 50.4 µM; in the assay with SF-539 CNS, 42.2 µM; with SW-620 colon it was above 92 µM.
Turning to `C/C(=N/NC(=S)N(C)C)c1ccccc1O`, the TGI with A498 renal is 97.9 µM; in the assay with CAKI-1 renal, above 100 µM; with CCRF-CEM leukemia, 21 µM; with HL-60(TB) leukemia, above 51.9 µM; in the assay on MCF7 breast, above 40.4 µM; with NCI-H226 lung, above 66.3 µM. Besides, the TGI in the assay with NCI/ADR-RES ovarian is 13.8 µM; with OVCAR-5 ovarian, above 100 µM; in the assay on SF-539 CNS, 50.3 µM; with SW-620 colon it was above 100 µM.
For `C/C(=N\NC(=O)CC#N)C(CN1CCCCC1)C(c1ccccc1)c1c(O)c2ccccc2oc1=O` (configuration not stated), the TGI in the assay on A498 renal was 82.5 µM; in the assay with CAKI-1 renal it was above 100 µM; with CCRF-CEM leukemia, 73.5 µM; in the assay with HL-60(TB) leukemia it was 63.3 µM; in the assay with MCF7 breast it was 40.6 µM; with NCI-H226 lung, above 100 µM. The TGI with NCI/ADR-RES ovarian, in the assay on OVCAR-5 ovarian, in the assay with SF-539 CNS and in the assay on SW-620 colon was above 100 µM in each case.
Take `COC(=O)c1ccccc1NC(=S)NN(C)C`: the TGI with A498 renal, in the assay on CAKI-1 renal, in the assay with CCRF-CEM leukemia, with HL-60(TB) leukemia, with MCF7 breast and in the assay with NCI-H226 lung was above 100 µM each time. Also, the TGI with NCI/ADR-RES ovarian, in the assay on OVCAR-5 ovarian, in the assay on SF-539 CNS and in the assay with SW-620 colon was above 100 µM in each case.
As for `CN(C)C(=S)/N=c1\ssc(=S)n1Cc1cccs1`, the TGI in the assay with A498 renal is above 100 µM; in the assay with CAKI-1 renal it was above 91.4 µM; with CCRF-CEM leukemia, above 60.2 µM; in the assay with HL-60(TB) leukemia, 13.9 µM; in the assay on MCF7 breast it was above 30.4 µM; with NCI-H226 lung, above 100 µM. For the same compound, the TGI in the assay with NCI/ADR-RES ovarian was 5.1 µM; in the assay with OVCAR-5 ovarian, above 100 µM; with SF-539 CNS, 15.1 µM; in the assay with SW-620 colon, above 100 µM.
Turning to `COc1cc(S(=O)(=O)Nc2ccc(-c3csc(N4C(=O)C(Cl)C4c4cccc(Oc5ccccc5)c4)n3)cc2)ccc1Cl` (configuration not stated), the TGI in the assay on A498 renal is 64.8 µM; in the assay on CAKI-1 renal it was 41.8 µM; in the assay with CCRF-CEM leukemia, above 100 µM; in the assay with HL-60(TB) leukemia, 41.7 µM; in the assay on MCF7 breast, above 100 µM; in the assay on NCI-H226 lung, 39.8 µM. Besides, the TGI in the assay on NCI/ADR-RES ovarian was above 100 µM; in the assay with OVCAR-5 ovarian it was above 100 µM; in the assay with SF-539 CNS, 29.6 µM; in the assay with SW-620 colon it was above 100 µM.
As for `N#C/C(=C/n1c(=S)[nH]c2ccccc21)C(N)=O`, the TGI in the assay with A498 renal is above 100 µM; in the assay on CAKI-1 renal, above 100 µM; in the assay on CCRF-CEM leukemia, above 100 µM; with HL-60(TB) leukemia it was 30.4 µM; in the assay on MCF7 breast it was above 100 µM; in the assay on NCI-H226 lung, above 100 µM. Moreover, the TGI in the assay on NCI/ADR-RES ovarian, in the assay on OVCAR-5 ovarian, in the assay with SF-539 CNS and in the assay on SW-620 colon was above 100 µM each time.
`COC1=CC(=O)c2c(cc(COP(N)(=O)N(CCCl)CCCl)n2C)C1=O` (configuration not stated): the TGI in the assay with A498 renal was 5.39 µM; in the assay on CAKI-1 renal, below 0.0478 µM; with CCRF-CEM leukemia, 8 µM; in the assay on HL-60(TB) leukemia, 3.89 µM; with MCF7 breast it was 9.55 µM; in the assay on NCI-H226 lung it was 1.32 µM. Also, the TGI worked out at 19.8 µM in the assay on NCI/ADR-RES ovarian, 4.21 µM in the assay with OVCAR-5 ovarian, 2.19 µM in the assay on SF-539 CNS and 4.21 µM with SW-620 colon.
Turning to `COC(=O)[C@H]1[C@@H](O)[C@@]2(O)c3c(OC)cc(OC)cc3O[C@@]2(c2ccc3c(c2)OCO3)[C@@H]1c1ccccc1`, the TGI in the assay on A498 renal was above 50 µM; in the assay on CAKI-1 renal it was 0.264 µM; in the assay on CCRF-CEM leukemia, above 50 µM; with HL-60(TB) leukemia it was 0.763 µM; in the assay with MCF7 breast, 0.0618 µM; with NCI-H226 lung it was 3.23 µM. Also, the TGI was 0.241 µM in the assay with NCI/ADR-RES ovarian, 0.206 µM in the assay on OVCAR-5 ovarian, 0.0279 µM in the assay with SF-539 CNS and above 22.2 µM in the assay with SW-620 colon.
In the case of `COc1cccc2c1C(=O)c1c(O)c3c(c(O)c1C2=O)C[C@@](O)(C(=O)CN1CCOCC1)C[C@@H]3OC1CC(N)C(O)C(C)O1` (some centres not stated), the TGI in the assay on A498 renal was 31.1 µM; in the assay with CAKI-1 renal it was above 53.8 µM; in the assay with CCRF-CEM leukemia, above 23.1 µM; in the assay on HL-60(TB) leukemia it was 5.19 µM; in the assay with MCF7 breast, above 100 µM; in the assay on NCI-H226 lung it was 8.78 µM. Further, the TGI in the assay on NCI/ADR-RES ovarian is above 100 µM; in the assay on OVCAR-5 ovarian, 57.6 µM; in the assay on SF-539 CNS, 23.6 µM; in the assay on SW-620 colon, above 78.7 µM. The values for the GI50 with CAKI-1 renal and in the assay with CCRF-CEM leukemia were 2610 nM and 964 nM, respectively.
`CNC(=O)c1cc2nc3ccccc3c(=O)n2c2ccccc12`: the TGI in the assay with A498 renal, with CAKI-1 renal, in the assay on CCRF-CEM leukemia, in the assay with HL-60(TB) leukemia, in the assay on MCF7 breast and with NCI-H226 lung was above 10 µM in each case. Also, the TGI in the assay with NCI/ADR-RES ovarian, in the assay on OVCAR-5 ovarian, in the assay with SF-539 CNS and with SW-620 colon was above 10 µM in each case.
Turning to `COc1cc(OCc2nc3cc(C(F)(F)F)ccc3nc2-c2ccccc2)cc(OC)c1OC`, the TGI in the assay on A498 renal, in the assay on CAKI-1 renal, in the assay with CCRF-CEM leukemia, in the assay on HL-60(TB) leukemia, in the assay on MCF7 breast and in the assay on NCI-H226 lung was above 100 µM in each case. In addition, the TGI in the assay with NCI/ADR-RES ovarian, in the assay on OVCAR-5 ovarian, with SF-539 CNS and with SW-620 colon was above 100 µM throughout.
Turning to `C/C(=N/NC(=S)Nc1cccc(Cl)c1)c1ccccn1`, the TGI with A498 renal is 7.56 µM; with CAKI-1 renal, 11.8 µM; in the assay with CCRF-CEM leukemia it was above 15.9 µM; with HL-60(TB) leukemia, 0.5 µM; in the assay on MCF7 breast, 5.17 µM; with NCI-H226 lung, 2.59 µM. Besides, the TGI in the assay on NCI/ADR-RES ovarian came out at 4.58 µM; in the assay with OVCAR-5 ovarian it was 3.46 µM; in the assay with SF-539 CNS it was 3.35 µM; with SW-620 colon it was 17.9 µM.
